Data published in article PMC9164157, “Characterization and Identification of a New Daidzein Reductase Involved in (S)-Equol Biosynthesis in Clostridium sp. ZJ6” (Frontiers in Microbiology, 2022).

Columns and labels:
NATTS DZNR = target: T1, NATTS DZNR (Slackia sp. NATTS, UniProt H3JUE4); assay: daidzein reductase assay, HPLC; format: biochemical; details: NAD(P)H, anaerobic
T1 construct: gene ddce; synthetic gene in pETDuet-1, expressed in E. coli BL21 (DE3), purified
T1 sequence (H3JUE4 1-644): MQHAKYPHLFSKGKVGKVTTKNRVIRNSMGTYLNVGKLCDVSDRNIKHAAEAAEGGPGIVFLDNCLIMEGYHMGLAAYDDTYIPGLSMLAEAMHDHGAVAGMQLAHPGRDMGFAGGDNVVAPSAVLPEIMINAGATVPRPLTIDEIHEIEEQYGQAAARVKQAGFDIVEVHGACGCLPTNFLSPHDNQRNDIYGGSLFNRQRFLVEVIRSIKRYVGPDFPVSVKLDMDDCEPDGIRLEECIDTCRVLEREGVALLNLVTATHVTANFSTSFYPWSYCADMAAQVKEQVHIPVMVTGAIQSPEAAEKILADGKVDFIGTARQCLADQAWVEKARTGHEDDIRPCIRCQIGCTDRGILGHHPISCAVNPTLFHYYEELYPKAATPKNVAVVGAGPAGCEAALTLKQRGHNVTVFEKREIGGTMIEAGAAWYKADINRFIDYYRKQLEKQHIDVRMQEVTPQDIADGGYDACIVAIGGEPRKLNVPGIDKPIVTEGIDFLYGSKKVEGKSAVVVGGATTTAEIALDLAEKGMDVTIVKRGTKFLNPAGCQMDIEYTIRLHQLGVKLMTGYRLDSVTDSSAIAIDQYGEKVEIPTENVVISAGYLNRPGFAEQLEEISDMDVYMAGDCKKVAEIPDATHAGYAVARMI

Lac 20_92 DZNR = target: T2, Lac 20_92 DZNR (Lactococcus garvieae, UniProt E1CIA4); assay: daidzein reductase assay, HPLC; format: biochemical; details: NAD(P)H, anaerobic, 37°C
T2 construct: gene l-dznr; synthetic gene in pETDuet-1, expressed in E. coli BL21 (DE3), purified
T2 sequence (E1CIA4 1-644): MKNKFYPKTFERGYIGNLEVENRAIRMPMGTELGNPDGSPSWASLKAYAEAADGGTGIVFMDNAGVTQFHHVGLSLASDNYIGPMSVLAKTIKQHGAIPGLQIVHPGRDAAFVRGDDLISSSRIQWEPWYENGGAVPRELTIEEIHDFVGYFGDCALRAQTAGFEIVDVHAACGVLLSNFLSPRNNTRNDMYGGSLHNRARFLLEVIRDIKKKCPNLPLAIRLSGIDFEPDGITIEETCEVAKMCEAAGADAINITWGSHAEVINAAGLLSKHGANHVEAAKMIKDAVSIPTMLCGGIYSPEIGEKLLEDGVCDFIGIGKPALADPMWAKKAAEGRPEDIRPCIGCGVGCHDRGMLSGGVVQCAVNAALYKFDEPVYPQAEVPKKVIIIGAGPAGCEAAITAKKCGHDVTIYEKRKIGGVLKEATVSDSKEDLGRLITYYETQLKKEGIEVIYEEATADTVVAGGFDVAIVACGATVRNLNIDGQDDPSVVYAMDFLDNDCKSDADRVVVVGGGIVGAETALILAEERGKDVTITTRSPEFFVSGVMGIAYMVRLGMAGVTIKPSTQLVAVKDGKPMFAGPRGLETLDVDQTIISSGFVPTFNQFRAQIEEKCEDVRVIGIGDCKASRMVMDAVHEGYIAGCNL

SMILES: O=c1c(-c2ccc(O)cc2)coc2cc(O)ccc12 [daidzein, 7-hydroxy-3-(4-hydroxyphenyl)-4H-chromen-4-one]
- daidzein reductase assay, HPLC (NATTS DZNR): all recombinant proteins showed DZNR activity, which is an ability to convert DZN to DHD
- daidzein reductase assay, HPLC (Lac 20_92 DZNR): all recombinant proteins showed DZNR activity, which is an ability to convert DZN to DHD
